In patent US6500819B2, “Bicyclolactam compounds, use thereof and intermediates for preparing thereof” (Taiho Pharmaceutical Company Limited, priority 1994, dated 2002):

Experiments:
ddY mice [1] = test: Sedative effect (spontaneous locomotor activity), second part
Procedure: Sedative Effect (Spontaneous locomotor activity)
(§1) Compound 1′a-1, the comparison compound, diazepam or buspirone was suspended in a 0.5% sodium carboxymethyl cellulose solution, and the suspension was orally administered to 3- to 4-week-old male ddY mice (in groups of 5) in a volume of 10 ml/kg one hour before the start of experiment.
The test was conducted with reference to a method described in “Evaluation of Medicinal Efficacies (1), Pharmacological Test Method (I), Basic Lectures on Development of Pharmaceuticals,” 50˜54(1971). More specifically, the group of mice were given the test drug and thereafter measured the amount of spontaneous locomotor activity for 10 minutes per mouse using Animex MK-110 (Muromachi Kikai Co., Ltd.).

ddY mice [2] = test: Anticonvulsant effect (pentylenetetrazol-induced convulsion method), second part; assay type: in vivo; settings: for ED50: Mus musculus, 1 h, read-out: ED50, anticonvulsant effect (no death within 60 minutes)
Procedure: Anticonvulsant Effect (Pentylenetetrazol-induced Convulsion Method)
Compound 1′a-1, the comparison compound, diazepam or j buspirone was suspended, in a 0.5% sodium carboxymethyl cellulose solution, and the suspension was orally administered to 3- to 4-week-old maple ddY mice (in groups of 6) in a volume of 10 ml/kg one hour before the start of experiment.
The test was conducted with reference to a method described in “Evaluation of Medicinal Efficacies (1), Pharmacological Test Method (I), Basic Lectures on Development of Pharmaceuticals,” 167˜172(1971).

Wistar rats [3] = test: Anticonflict test (first part, Test Example 1); assay type: in vivo; settings: for Frequency of water drinking behavior: 1 h before test, value relative to control = 100; for Anxiolytic effect in the anticonflict test (in words): oral, compounds at doses of 0.001 to 1.0 mg/kg
Procedure: (§2) Wistar rats (males weighing 140 to 160 g) were used for experiment in groups of 11 to 14.
The test compound, diazepam or buspirone was suspended in a 0.5 % sodiumn carboxymethyl cellulose solution, and the suspension was orally given to the animal in a volume of 5 mnl/kg one hour before the start of experiment.
With reference to a method described in “Process in Anxiolytics and Antidepresants,” ediled by Showa Ueki and Tatsuo Furukawa, Ishiyaku Shuppansha, 56-59 (1981) , the agents were tested using experimental boxes having a grid floor and a metal drinking tube in the floor. No water was supplied to the rats for 48 hours before the experiment. Upon lapse of first 24 hours, each group of rats were placed into the experimental box, permitted access to water for 30 seconds and caused to recognize the metal drinking tube. Upon lapse of further 24 hours with access to water prevented, the rats were placed into the box again and permitted access to water on condition that an electric current was passed between the metal drinking tube and the grid to give an electroshock for every 20 times of water drinking behavior to measure the frequency of water drinking behavior for 3 minutes.
The frequency is expessed by a value relative to the frequency of the control which is taken as 100.

Wistar rats [4] = test: Elevated plus maze test; assay type: in vivo; settings: for Ratio of entries into open arm: 1 h before test, relative to control = 100
Procedure: Wistar rats (males weighing 170 to 220 g) were used for experiment in groups of 4 to 9.
The test compound, diazepam or buspirone was suspended in a 0.5 %) sodium carboxymethyl cellulose solution, and the suspension was orally given to the animal in a volume of 5 ml/kg one hour before the start of experiment.
The test was conducted using an experimental device, Model BTA-2, Behavior Analysis System (product of Muromachi Kikai Co., Ltd.) with reference to a method described in Psychopharmacology, 99, 48˜53(1989). […] Each group of rats orally given the test drug were placed in the center square, and the behavior of the animals was recorded for 5 minutes using a behavior analyzer. The ratio of the number of entries into the open arm to the number of entries into all the arms was determined for evaluating the anxiolytic effect.
The ratio of entries into the open arm is expressed by a value relative to the ratio attained by the control which is taken as 100.

Wistar rats [5] = test: Anticonflict test (second part, relieving rate of anxiety); assay type: in vivo; settings: oral, dose of 1.0 mg/kg
Procedure: as §2
No water was supplied to the rats for 48 hours before the experiment. Upon lapse of first 24 hours, each group of rats were placed into the experimental box, permitted access to water for 30 seconds and caused to recognize the metal drinking tube. Upon lapse of further 24 hours with access to water prevented, the rats were placed into the box again and permitted access to water on condition that an electric current was passed between the metal drinking tube and the grid to give an electroshock for every 20 times of water drinking behavior to measure the frequency of water drinking behavior for 3 minutes. Anxiolytic effect was evaluated as relieving rate of anxiety as calculated by the following equation.

in vivo = settings: male, ddY, mouse, in vivo
Procedure: (§3) Effect On Central Nervous System Depressant
a. Pentobarbital Anesthetic Method
Compound 3, Compound 13, diazepam or buspirone was suspended in a 0.5 % sodium carboxymethyl cellulose solution, and the suspension was orally administered to 3- to 4-week-old male ddY mice (in groups of 5 to 10) in a volume of 10 ml/kg one hour before the start of experiment.
The test was conducted with reference to a method described in “Evaluation of Medicinal Efficacies (1), Pharmacological Test Method (1), Basic lectures on Development of Pharmaceuticals,” 144˜145(1971). More specifically, the group of mice were intraperitoneally given pentobarbital at a dose of 40 mg/kg and checked for sleeping time.

ddY mice [6] = test: Anticonvulsant effect (pentylenetetrazol-induced convulsion method), first part; assay type: in vivo; settings: oral, dose of 300 mg/kg
Procedure: Anticonvulsant Effect (Pentylenetetrazol-Induced Convulsion Method)
(§4) Compound 3, Compound 13, diazepam or buspirone was suspended in a 0.5 % sodium carboxymethyl cellulose solution, and the suspension was orally administered to 3- to 4-week-old male ddY mice (in groups of 6) in a volume of 10 ml/kg one hour before the start of experiment.
The test was conducted with reference to a method described in “Evaluation of Medicinal Efficacies (1), Pharmacological Test Method (1), Basic lectures on Development of Pharmaceuticals,” 167˜172(1971).

ddY mice [7] = test: Sedative effect (spontaneous locomotor activity), first part; settings: mouse, in vivo, po, 300 mg/kg
Procedure: (§5) Sedative Effect (Spontaneous Locomotor Activity)
(§6) Compound 3, Compound 13, diazepam or buspirone was suspended in a 0.5 % sodium carboxymethyl cellulose solution, and the suspension was orally administered to 3- to 4-week-old male ddY mice (in groups of 5) in a volume of 10 ml/kg one hour before the start of experiment.
(§7) The test was conducted with reference to a method described in “Evaluation of Medicinal Efficacies (1), Pharmacological Test Method (1), Basic Lectures on Development of Pharmaceuticals,” 50˜54(1971). More specifically, the group of mice were given the test drug and thereafter measured the amount of spontaneous locomotor activity for 10 minutes per mouse rising Animex MK-110 (product of Muromachi Kikai Co., Ltd.).

ddY mice [8] = test: Muscle relaxant effect (traction method), first part; settings: mouse, in vivo, po, 300 mg/kg
Procedure: (§8) Muscle Relaxant Effect (Traction Method)
as §6
(§9) With reference to a method described in Japan. J. Pharmacol., 49. 337˜349(1989), the foreleg of the mouse was hung on a horizontal wire, having a diameter of 1.2 mm and fixed at a level of 30 cm, three times consecutively. […] Thus, ED5 0 was determined for evaluation. […] Diazepam and buspirone were 2.2 mg/kg and 427.8 mg/kg, respectively, in ED5 0.

ddY mice [9] = test: Effect on central nervous system depressant: ethanol enhancing method, first part; settings: mouse, in vivo, po, 300 mg/kg
Procedure: as §3
(§10) b. Ethanol Enhancing Method
as §4
(§11) The test was conducted with reference to a method described in Japan. J. Pharmacol., 49, 337˜349(1989). More specifically, the group of mice were intraperitoneally given 25 % ethanol at a dose of 20 ml/kg and checked for the time interval between loss and recovery of the righting reflex.

[10] = Acute toxicity test (LD50), first part; assay type: in vivo; settings: mouse, in vivo; oral, male ddY mice, observed for 3 days
[11] = Sedative effect (spontaneous locomotor activity), first part; settings: male, ddY, mouse, in vivo, po
Procedure: as §5, §6, §7

[12] = Effect on central nervous system depressant (ethanol enhancing method), second part; settings: male, ddY, mouse, in vivo
Procedure: (§12) Effect on central nervous system depressant (Ethanol enhancing method)
(§13) Compound 1′a-1, the comparison compound, diazepam or buspirone was suspended in a 0.5% sodium carboxymethyl cellulose solution, and the suspension was orally administered to 3- to 4-week-old male ddY mice (in groups of 6) in a volume of 10 ml/kg one hour before the start of experiment.
(§14) The test was conducted with reference to a method described in Japan. J. Pharmacol., 49, 337˜349(1989). More specifically, the group of mice were intraperitoneally given 25% ethanol at a dose of 20 ml/kg and checked for the time interval between loss and recovery of the righting reflex.

[13] = Muscle relaxant effect (traction method), second part; settings: male, ddY, mouse, in vivo, po
Procedure: as §8, §1, §9

[14] = Muscle relaxant effect (traction method), first part; settings: male, ddY, mouse, in vivo, po
Procedure: as §8, §6, §9

[15] = Effect on central nervous system depressant: ethanol enhancing method, first part; settings: male, ddY, mouse, in vivo
Procedure: as §3, §10, §4, §11

ddY mice [16] = test: Effect on central nervous system depressant (ethanol enhancing method), second part; settings: oral, dose of 300 mg/kg
Procedure: as §12, §13, §14

ddY mice [17] = test: Muscle relaxant effect (traction method), second part; settings: oral, dose of 300 mg/kg
Procedure: as §8, §1, §9

Structure (SMILES): O=C1CC2(CCCC2)CC(=O)N1CCCCN1CCN(c2ncccn2)CC1 [Buspirone, buspirone, reference compound]
- ED6O, sedative effect (spontaneous locomotor activity up to 50% of control) (ddY mice [1]; male, ddY, mouse, in vivo, po, 1 h): 149.7 mg/kg
- ED50 (ddY mice [2]): ≥ 300 mg/kg
- Frequency of water drinking behavior (Wistar rats [3]; dose 1.0 mg/kg oral): 103%
- Anxiolytic effect in the anticonflict test (in words) (Wistar rats [3]): almost ineffective
- Ratio of entries into open arm (Wistar rats [4]; dose 1.0 oral): 98
- Ratio of entries into open arm (Wistar rats [4]; dose 10.0 oral): 93
- Anxiolytic effect in the anticonflict test (in words) (Wistar rats [5]): almost ineffective

Structure (SMILES): COc1ccc(C(=O)N2C(=O)CCC3CCCC32)cc1 (stereo not drawn) [Compound 3, 2-(4-methoxybenzoyl)-2-azabicyclo[4.3.0]nonane-3-one]
- ED50 at 1 h (in vivo): ≥ 300 mg/kg
- Frequency of water drinking behavior (Wistar rats [3]; dose 0.001 mg/kg oral): 126%
- Frequency of water drinking behavior (Wistar rats [3]; dose 0.01 mg/kg oral): 162%
- Frequency of water drinking behavior (Wistar rats [3]; dose 0.1 mg/kg oral): 164%
- Frequency of water drinking behavior (Wistar rats [3]; dose 1.0 mg/kg oral): 166%
- Anxiolytic effect in the anticonflict test (in words) (Wistar rats [3]): increase in the frequency of water drinking behavior
- Anticonvulsant effect (in words) (ddY mice [6]): no anticonvtilsant effect
- Sedative effect (in words) (ddY mice [7]): no sedative effect
- Ratio of entries into open arm (Wistar rats [4]; dose 0.001 oral): 195
- Ratio of entries into open arm (Wistar rats [4]; dose 0.01 oral): 219
- Ratio of entries into open arm (Wistar rats [4]; dose 0.1 oral): 248
- Anxiolytic effect in the elevated plus maze (in words) (Wistar rats [4]; oral, dose of 0.001 mg/kg or greater): increase in the number of entries into the open arm
- Muscle relaxant effect (in words) (ddY mice [8]): no muscle relaxant effect
- Ethanol enhancing effect (in words) (ddY mice [9]): no ethanol enhancing effect
- LD50 at 3 days [10]: > 2000 mg/kg

Structure (SMILES): CN1C(=O)CN=C(c2ccccc2)c2cc(Cl)ccc21 [Diazepam, diazepam, reference compound]
- ED50 at 1 h (in vivo): 0.53 mg/kg
- ED6O, sedative effect (spontaneous locomotor activity up to 50% of control) (ddY mice [1]; oral, mice, 1 h before test): 1.7 mg/kg
- ED50 (ddY mice [2]): 0.35 mg/kg
- Frequency of water drinking behavior (Wistar rats [3]; dose 1.0 mg/kg oral): 96%
- Anxiolytic effect in the anticonflict test (in words) (Wistar rats [3]): almost ineffective
- ED50 at 1 h [11]: 1.7 mg/kg
- Ratio of entries into open arm (Wistar rats [4]; dose 1.0 oral): 103
- Ratio of entries into open arm (Wistar rats [4]; dose 10.0 oral): 144
- ED50 at 1 h [12]: 0.48 mg/kg
- ED50 at 1 h [13]: 2.2 mg/kg
- ED50 at 1 h [14]: 2.2 mg/kg
- ED50 at 1 h [15]: 0.48 mg/kg
- Anxiolytic effect in the anticonflict test (in words) (Wistar rats [5]): almost ineffective

Structure (SMILES): O=C1CC2CCCCC2N1 (stereo not drawn) [Comparison Compound, 2-azabicyclo[3.4.0]nonane-2-one]
- Sedative effect (in words) (ddY mice [1]; oral, dose of 300 mg/kg): no sedative effect
- Anticonvulsant effect (in words) (ddY mice [2]; oral, dose of 300 mg/kg): no anticonvulsant effect
- Ethanol enhancing effect (in words) (ddY mice [16]): no ethanol enhancing effect
- Muscle relaxant effect (in words) (ddY mice [17]): no muscle relaxant effect
